Data published in ChEMBL document CHEMBL1201862, “PubChem BioAssay data set” (2004).
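1) Cells in 96-well plates. 2) Compound, 48 h, 5 concentrations. 3) Linear interpolation between surrounding doses. 4) Unreached endpoint = highest concentration. At the GI50, growth is halved.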 Active and inactive are the calls of the source. No stated cut-off is given here; in the data, active = GI50 up to about 1.1 µM and inactive = higher.

Tests used:
Experiment in all cases: DTP human tumour cell line panel, 48 h
LOX IMVI = tested on: LOX IMVI
U-251 = tested on: U-251
M14 = tested on: M14
SW-620 = tested on: SW-620
K562 = tested on: K562
MOLT-4 = tested on: MOLT-4
SK-MEL-28 = tested on: SK-MEL-28
OVCAR-3 = tested on: OVCAR-3
SR = tested on: SR
A549 = tested on: A549
DU-145 = tested on: DU-145
PC-3 = tested on: PC-3
OVCAR-8 = tested on: OVCAR-8
NCI/ADR-RES = tested on: NCI/ADR-RES
HCT-116 = tested on: HCT-116
HOP-62 = tested on: HOP-62
Hs-578T = tested on: Hs-578T
ACHN = tested on: ACHN
UACC-62 = tested on: UACC-62
HL-60 = tested on: HL-60

Measured: GI50

NC(=O)NC(CC(=O)O)C(=O)O (configuration not stated)
inactive: LOX IMVI > 100 µM | U-251 > 100 µM | M14 > 100 µM | SW-620 > 100 µM | K562 > 100 µM | MOLT-4 > 100 µM | SK-MEL-28 > 100 µM | OVCAR-3 > 100 µM | SR > 100 µM | A549 > 100 µM | DU-145 > 100 µM | PC-3 > 100 µM | OVCAR-8 > 100 µM | NCI/ADR-RES > 100 µM | HCT-116 > 100 µM | HOP-62 > 100 µM | Hs-578T > 100 µM | ACHN > 100 µM | UACC-62 > 100 µM

CN(/N=C/C=N/N(C)C1=NCCN1)C1=NCCN1
inactive: LOX IMVI > 100 µM | U-251 > 100 µM | M14 > 100 µM | SW-620 > 100 µM | K562 > 100 µM | MOLT-4 > 100 µM | SK-MEL-28 > 100 µM | OVCAR-3 > 100 µM | SR > 100 µM | A549 > 100 µM | DU-145 > 100 µM | PC-3 > 100 µM | OVCAR-8 > 100 µM | NCI/ADR-RES > 100 µM | HCT-116 > 100 µM | HOP-62 > 100 µM | Hs-578T > 100 µM | ACHN > 100 µM | UACC-62 > 100 µM

Cc1ccc(I)cc1N=C=S
inactive: LOX IMVI 22.2 µM | U-251 19.5 µM | M14 20.2 µM | SW-620 32.7 µM | K562 23 µM | MOLT-4 20.2 µM | SK-MEL-28 20.2 µM | OVCAR-3 31 µM | A549 28.6 µM | HL-60 21.6 µM | DU-145 28.3 µM | PC-3 20.3 µM | OVCAR-8 38.4 µM | NCI/ADR-RES 25.9 µM | HCT-116 29.8 µM | HOP-62 26.1 µM | Hs-578T 29.9 µM | ACHN 22.8 µM | UACC-62 17.3 µM

O=C1Nc2ccccc2/C1=N\c1cccc2ncccc12
inactive: LOX IMVI 27.4 µM | U-251 67.5 µM | M14 > 100 µM | SW-620 > 100 µM | K562 34 µM | MOLT-4 30 µM | SK-MEL-28 > 100 µM | OVCAR-3 63.7 µM | SR 31.6 µM | A549 81.5 µM | DU-145 > 100 µM | PC-3 > 100 µM | OVCAR-8 > 100 µM | NCI/ADR-RES > 100 µM | HCT-116 58.7 µM | HOP-62 46.5 µM | Hs-578T 39.1 µM | ACHN > 100 µM | UACC-62 > 100 µM

C=C1C(=O)OC2CCN3CC=C(COC(=O)C(C)(O)C4(CO4)C1C)C23 (configuration not stated)
inactive: LOX IMVI > 100 µM | U-251 > 100 µM | M14 > 100 µM | SW-620 > 100 µM | K562 > 100 µM | MOLT-4 > 100 µM | SK-MEL-28 > 100 µM | SR > 100 µM | A549 > 100 µM | DU-145 > 100 µM | PC-3 > 100 µM | OVCAR-8 > 100 µM | NCI/ADR-RES > 100 µM | HCT-116 > 100 µM | Hs-578T > 100 µM | ACHN > 100 µM | UACC-62 > 100 µM

Cc1ccc2c(=O)c(-c3n[nH]c(=S)s3)c[nH]c2n1
inactive: LOX IMVI > 100 µM | U-251 > 100 µM | M14 > 100 µM | SW-620 > 100 µM | K562 > 100 µM | MOLT-4 > 100 µM | SK-MEL-28 > 100 µM | OVCAR-3 > 100 µM | A549 > 100 µM | HL-60 > 100 µM | DU-145 > 100 µM | PC-3 > 100 µM | OVCAR-8 > 100 µM | NCI/ADR-RES > 100 µM | HCT-116 > 100 µM | HOP-62 > 100 µM | Hs-578T > 100 µM | ACHN > 100 µM | UACC-62 > 100 µM

O=C(NCCC1CNc2ccccc21)OCc1ccccc1 (configuration not stated)
inactive: U-251 > 100 µM | M14 > 100 µM | SW-620 > 100 µM | K562 > 100 µM | MOLT-4 71.4 µM | SK-MEL-28 > 100 µM | OVCAR-3 > 100 µM | SR > 100 µM | A549 > 100 µM | DU-145 > 100 µM | PC-3 > 100 µM | OVCAR-8 > 100 µM | NCI/ADR-RES > 100 µM | HCT-116 > 100 µM | HOP-62 > 100 µM | Hs-578T > 100 µM | ACHN > 100 µM | UACC-62 > 100 µM

COC(c1ccsc1)C(C#N)(C#N)/N=C/c1ccsc1 (configuration not stated)
inactive: LOX IMVI 10.3 µM | U-251 17.3 µM | M14 17.8 µM | SW-620 14.6 µM | K562 13 µM | MOLT-4 13.9 µM | SK-MEL-28 18.6 µM | OVCAR-3 12.6 µM | A549 30.5 µM | HL-60 3.18 µM | DU-145 15.2 µM | PC-3 14 µM | OVCAR-8 18.1 µM | NCI/ADR-RES 17.7 µM | HCT-116 12.8 µM | HOP-62 17.4 µM | Hs-578T 22.1 µM | ACHN 18.7 µM | UACC-62 15.2 µM

COc1ccc(OC)c(-c2nc(O)c3ccccc3n2)c1
inactive: U-251 > 100 µM | M14 > 100 µM | SW-620 > 100 µM | K562 > 100 µM | MOLT-4 40.6 µM | OVCAR-3 > 100 µM | SR 67 µM | A549 > 100 µM | DU-145 > 100 µM | PC-3 > 100 µM | OVCAR-8 > 100 µM | NCI/ADR-RES 98.4 µM | HCT-116 > 100 µM | HOP-62 > 100 µM | Hs-578T > 100 µM | ACHN > 100 µM | UACC-62 66.8 µM

O=C1C=CC(=O)C(CNc2ccc(C(=O)OC34CC5CC(CC(C5)C3)C4)cc2)=C1Br
inactive: LOX IMVI 9.48 µM | U-251 4 µM | M14 13.4 µM | SW-620 18.2 µM | K562 5.58 µM | MOLT-4 2.24 µM | OVCAR-3 13.5 µM | A549 13.3 µM | HL-60 1.66 µM | DU-145 23.6 µM | PC-3 4.76 µM | OVCAR-8 5.51 µM | NCI/ADR-RES 3.82 µM | HCT-116 12.7 µM | HOP-62 19 µM | Hs-578T 6.35 µM | ACHN 14.6 µM | UACC-62 7.38 µM

O=C1C=C(N2CCN(CCOCCO)CC2)C(=O)c2c(O)ccc(O)c21
inactive: LOX IMVI 1.92 µM | U-251 4.02 µM | M14 1.56 µM | SW-620 2.31 µM | K562 3.17 µM | SK-MEL-28 17.1 µM | OVCAR-3 1.82 µM | A549 3.56 µM | HL-60 2.52 µM | DU-145 3.42 µM | PC-3 3.07 µM | OVCAR-8 3.44 µM | NCI/ADR-RES 2.94 µM | HCT-116 2.02 µM | HOP-62 17.9 µM | Hs-578T 20.1 µM | ACHN 7.4 µM | UACC-62 1.82 µM
